Where a name gives a salt, the structure may show the parent alone. Read-outs that look alike come from different tables or passages of the source.

The experiment concerns the target SARS-CoV-2 3CLpro (Severe acute respiratory syndrome coronavirus 2, UniProt P0DTD1). Nature of the experiment: biochemical. In kind it is biochemical. More on the design: Replicate_1 / Replicate_2 / mean / mean (LOPAC_screen_w_protease): unit not given here. As to conditions: for inhibition at 5 µM: 4 h; for mean (LOPAC screen with protease) / Replicate_1 (LOPAC screen with protease) / Replicate_2 (LOPAC screen with protease): primary screen at 5 µM.

Setting [1] is: read-out: Replicate_1 (LOPAC screen with protease).
Setting [2] is: read-out: Replicate_2 (LOPAC screen with protease).
Where [3] appears, read: read-out: mean (LOPAC screen with protease).
The mark [4] stands for this setting: sheet LOPAC_screen_w_protease, LOPAC1280 at 5 µM, mean of two replicates, read-out: mean.
Setting [5] is: sheet LOPAC_screen_w_protease, LOPAC1280 at 5 µM, replicate 1, read-out: Replicate_1.
Where [6] appears, read: sheet LOPAC_screen_w_protease, LOPAC1280 at 5 µM, replicate 2, read-out: Replicate_2.
Where [7] appears, read: sheet LOPAC_screen_w_protease, primary screen with protease, 5 µM, mean of two replicates, read-out: mean.
Where [8] appears, read: sheet LOPAC_screen_w_protease, primary screen with protease, 5 µM, replicate 1, read-out: Replicate_1.
Setting [9] is: sheet LOPAC_screen_w_protease, primary screen with protease, 5 µM, replicate 2, read-out: Replicate_2.
Where [10] appears, read: sheet LOPAC_screen_w_protease, mean of two replicates.
The mark [11] stands for this setting: sheet LOPAC_screen_w_protease, replicate 1.
The mark [12] stands for this setting: sheet LOPAC_screen_w_protease, replicate 2.
[13] abbreviates: LOPAC1280 primary screen with protease, 5 µM compound, mean of two replicates.
The mark [14] stands for this setting: LOPAC1280 primary screen with protease, 5 µM compound, replicate 1.
The mark [15] stands for this setting: LOPAC1280 primary screen with protease, 5 µM compound, replicate 2.

For the molecule `Cc1cnc(C(=O)NCCc2ccc(S(=O)(=O)NC(=O)NC3CCCCC3)cc2)cn1` [Glipizide], the inhibition at 5 µM under setting [1] came to 10.3%, the inhibition at 5 µM under setting [2] was 3.17% and the inhibition at 5 µM under setting [3] worked out at 6.73%.
Take `Cl.Cl.Fc1ccc(C(OCCN2CCN(CCCc3ccccc3)CC2)c2ccc(F)cc2)cc1` [GBR-12909 dihydrochloride]: the mean (sheet LOPAC_screen_w_protease, LOPAC1280 primary screen with protease, 5 µM compound, mean of the two replicates) is given as 4.322. Besides, the Replicate_1 (sheet LOPAC_screen_w_protease, LOPAC1280 primary screen with protease, 5 µM compound, replicate 1) is recorded as 4.518. Further, under “sheet LOPAC_screen_w_protease, LOPAC1280 primary screen with protease, 5 µM compound, replicate 2”, the Replicate_2 stood at 4.126.
With `N=C(N)c1ccccc1` [Benzamidine hydrochloride], the inhibition at 5 µM came to 2.38% (sheet LOPAC_screen_w_protease, primary screen with protease, mean of two replicates, read-out: mean); 1.49% (sheet LOPAC_screen_w_protease, primary screen with protease, replicate 1, read-out: Replicate_1); 3.28% (sheet LOPAC_screen_w_protease, primary screen with protease, replicate 2, read-out: Replicate_2).
Regarding `CC(C)(C)NCC(O)c1ccccc1Cl` (centres unmarked) [Tulobuterol hydrochloride], the inhibition at 5 µM runs as follows: under setting [4], 0.895%; under setting [5], 2.46%; under setting [6], -0.673%.
On to `O=c1c2ccccc2[se]n1-c1ccccc1` [Ebselen, reference compound], for which the inhibition at 5 µM by setting is: under setting [1], 105%; under setting [2], 102%; under setting [3], 103%.
`CC(C)[N+](C)(CCOC(=O)C1c2ccccc2Oc2ccccc21)C(C)C` [Propantheline bromide]: the inhibition at 5 µM under setting [7] was found to be 0.204%, the inhibition at 5 µM under setting [8] worked out at 0.838% and the inhibition at 5 µM under setting [9] is -0.43%.
For `Cn1c(=O)c2[nH]cnc2n(C)c1=O.Cn1c(=O)c2[nH]cnc2n(C)c1=O.NCCN` [Aminophylline ethylenediamine], the Replicate_1 was determined as 0.5539, the Replicate_2 is -0.4553 and the mean is recorded as 0.04927.
(+)-Catechin Hydrate: the “mean (LOPAC screen with protease)” value under setting [10] is recorded as 22.7149. The “Replicate_1 (LOPAC screen with protease)” value under setting [11] amounted to 22.57. The “Replicate_2 (LOPAC screen with protease)” value under setting [12] amounted to 22.8597.
For `CN(C)CC/C=C1/c2ccccc2Sc2ccc(Cl)cc21` [Chlorprothixene hydrochloride], the inhibition at 5 µM under setting [4] worked out at 1.25%, the inhibition at 5 µM under setting [5] was 0.326% and the inhibition at 5 µM under setting [6] stood at 2.17%.
Take `CCN1C(=O)C=CC1=O` [N-Ethylmaleimide]: the inhibition at 5 µM (LOPAC1280 primary screen with protease, 5 µM compound, replicate 1, read-out: Replicate_1 (LOPAC_screen_w_protease)) was found to be 5.02% and the inhibition at 5 µM (LOPAC1280 primary screen with protease, 5 µM compound, replicate 2, read-out: Replicate_2 (LOPAC_screen_w_protease)) was -1.33%. Moreover, under “LOPAC1280 primary screen with protease, 5 µM compound, mean of the two replicates”, the “mean (LOPAC_screen_w_protease)” value is 1.849.
Regarding `CN(C)c1cc2c(Nc3ccc4c(cnn4Cc4ccccc4)c3)ncnc2cn1` [GW2974], the “mean (LOPAC_screen_w_protease)” value under setting [13] is on record as 1.489. In addition, under setting [14], the “Replicate_1 (LOPAC_screen_w_protease)” value worked out at 2.805. The “Replicate_2 (LOPAC_screen_w_protease)” value under setting [15] was 0.1722.
Regarding `Nc1c[n+](N2CCOCC2)no1.[Cl-]` [3-Morpholinosydnonimine hydrochloride], the “mean (LOPAC screen with protease)” value under setting [10] came out at 21.789. Also, under setting [11], the “Replicate_1 (LOPAC screen with protease)” value was 21.9907. Moreover, under setting [12], the “Replicate_2 (LOPAC screen with protease)” value is recorded as 21.5874.
In the case of `CNC(=C[N+](=O)[O-])NCCSCc1ccc(CN(C)C)o1` [Ranitidine hydrochloride], the inhibition at 5 µM runs as follows: (read-out: Replicate_1 (LOPAC_screen_w_protease)) 2.07%; (read-out: Replicate_2 (LOPAC_screen_w_protease)) 1.3%.
Where the note is “sheet LOPAC_screen_w_protease, primary screen of LOPAC1280 at 5 µM with protease, mean of the two replicates”, `Ic1ccccc1CNC1C2CCN(CC2)C1C(c1ccccc1)c1ccccc1.O=C(O)C(=O)O` [L-703,606 oxalate] returned a mean of 3.6584. Also, the Replicate_1 (sheet LOPAC_screen_w_protease, primary screen of LOPAC1280 at 5 µM with protease, replicate 1) is 4.135. Under “sheet LOPAC_screen_w_protease, primary screen of LOPAC1280 at 5 µM with protease, replicate 2”, the Replicate_2 worked out at 3.181.
As to `COc1ccc(OC)c(C(O)C(C)N)c1` (centres unmarked) [Methoxamine hydrochloride], the inhibition at 5 µM was found to be 3.32% (sheet LOPAC_screen_w_protease, primary screen of LOPAC1280 at 5 µM with protease, mean of the two replicates, read-out: mean); 2.74% (sheet LOPAC_screen_w_protease, primary screen of LOPAC1280 at 5 µM with protease, replicate 1, read-out: Replicate_1); 3.89% (sheet LOPAC_screen_w_protease, primary screen of LOPAC1280 at 5 µM with protease, replicate 2, read-out: Replicate_2).
On to `COc1cccc(OC)c1OCCNCC1COc2ccccc2O1.Cl` (centres unmarked) [WB-4101 hydrochloride], for which, under setting [13], the “mean (LOPAC_screen_w_protease)” value is listed as 1.343. Moreover, the “Replicate_1 (LOPAC_screen_w_protease)” value under setting [14] amounted to 1.824. Besides, the “Replicate_2 (LOPAC_screen_w_protease)” value under setting [15] is reported as 0.8625.
With `CCCNC(C)C(=O)Nc1ccccc1C` (centres unmarked) [Prilocaine hydrochloride], the inhibition at 5 µM is 0.116% under setting [7], 0.518% under setting [8] and -0.285% under setting [9].
As for `N=C(N)N/N=C/c1c(Cl)cccc1Cl` [Guanabenz acetate], the inhibition at 5 µM under setting [4] was found to be 1.09%, the inhibition at 5 µM under setting [5] came to 2.57% and the inhibition at 5 µM under setting [6] was -0.398%.

The record behind these values is paper PMC7587356, “High-Throughput Screening for Inhibitors of the SARS-CoV-2 Protease Using a FRET-Biosensor” (Molecules, 2020).
